Laboratory results as given in patent US12371430B2, “5-morpholin-4-yl-pyrazolo[4,3-b]pyridine derivatives” (Merck Patent GmbH, priority 2018, dated 2025).

Legend:
[1] = molecular target: Kv11.1 (hERG) ion channel (Homo sapiens (Human), UniProt Q12809); assay: Kv11.1 (hERG) ion channel activity, whole cell patch clamp in HEK293; format: cell-based; conditions: for Ki: heading: hERG Ki, HEK293 cells stably expressing hERG, patch clamp
Method: Kv11.1 (hERG) Ion Channel Activity
In this assay, a potential in vitro effect of test compounds on the Kv11.1 (hERG) ion channel current is investigated which mediates the rapidly activating, delayed rectifier cardiac potassium current (IKr). The assay is performed with a stable Kv11.1 (hERG) transfected human embryonic kidney cell line (HEK293) by whole cell patch clamp technique carried out at room temperature.
The Kv11.1 (hERG) ion channel blocker quinidine is used as reference compound. The effects of the test compounds and quinidine are normalized to the corresponding vehicle control. The whole cell recordings are carried out with an automated patch clamp device Patchliner™, Nanion Technologies, Munich). Hereby the Patch Clamp measurements run on silicate-coated chips with a hole of a defined diameter. Solutions, cell suspension and compounds are applied by a Teflon-laminated pipette needle through microfluidic silicate-laminated channels. Commercial patch clamp amplifiers (EPC10, HEKA Elektronik Dr. Schulze GmbH, Germany) are used for the patch clamp recordings. HEK293 cells stably expressing the hERG gene are held at −80 mV. Steady-state inhibition of Kv11.1 (hERG) potassium current due to test/reference compound application is measured using a pulse pattern with fixed amplitudes: 51 ms/−80 mV, 500 ms/+40 mV, 500 ms/−40 mV, 200 ms/−80 mV. The hERG-specific voltage protocol is repeated at 10 s intervals. The leak current is subtracted by a P4 leak subtraction. Cells are resuspended in extracellular patch clamp solution (EC) and applied into the chip. After trapping the cell, the EC is exchanged by seal enhancer solution (SE) to improve the sealing procedure. When the whole cell configuration is attained, seal enhancer is washed out by the application of EC. The recording is started in EC for 1.5 min. Afterwards DMSO (vehicle control, 0.1% DMSO) is applied and the control current is measured for 3 min. Following control steady-state current, test compound is applied twice at the same concentration and the tail current is measured for 3.5 min each. For the determination of a concentration-relationship, the test compound is applied as a cumulative concentration-response curve and each concentration is measured for 5 min. The reference compound quinidine is treated in the same way. The effect on Kv11.1 (hERG) ion channel activity is judged from the tail current amplitude monitored at −40 mV (current of interest, COI). Results are calculated from the last recorded current traces. Changes in Kv11.1 (hERG) ion channel activity between control value, defined as 100% Kv11.1 (hERG) ion channel activity, application of test compound and application of quinidine is reported as percent change of control value of COI. An aliquot of test compound is collected for concentration verification during the recording. The sample is immediately measured by HPLC and the final compound concentration within the assay is calculated according to a calibration curve.

[2] = test system: phosphorylation of Chk1 (Ser 345) in HT29 colon adenocarcinoma cells; assay: pCHK1 cellular assay; format: cell-based; conditions: Homo sapiens, HT-29, hydroxyurea 3 mM, 4 h
In short: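 HT29 cells plated ≥20 h, then compound (1 nM–30 μM final) with hydroxyurea (3 mM final) added together for 4 h at 37 °C. After MeOH/Triton fixation-permeabilisation, anti-pChk1 immunostaining plus nuclear stain; nuclear pChk1 imaged by confocal high content reader, reported as % positive nuclei.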

ATR/ATRIP = ATR/ATRIP (Homo sapiens (Human), UniProt Q13535); assay: ATR/ATRIP kinase assay (TR-FRET, p53 Ser15 phosphorylation); format: biochemical; conditions: 0.5 μM ATP, 50 nM p53
Sequence of ATR/ATRIP (Q13535 whole entry): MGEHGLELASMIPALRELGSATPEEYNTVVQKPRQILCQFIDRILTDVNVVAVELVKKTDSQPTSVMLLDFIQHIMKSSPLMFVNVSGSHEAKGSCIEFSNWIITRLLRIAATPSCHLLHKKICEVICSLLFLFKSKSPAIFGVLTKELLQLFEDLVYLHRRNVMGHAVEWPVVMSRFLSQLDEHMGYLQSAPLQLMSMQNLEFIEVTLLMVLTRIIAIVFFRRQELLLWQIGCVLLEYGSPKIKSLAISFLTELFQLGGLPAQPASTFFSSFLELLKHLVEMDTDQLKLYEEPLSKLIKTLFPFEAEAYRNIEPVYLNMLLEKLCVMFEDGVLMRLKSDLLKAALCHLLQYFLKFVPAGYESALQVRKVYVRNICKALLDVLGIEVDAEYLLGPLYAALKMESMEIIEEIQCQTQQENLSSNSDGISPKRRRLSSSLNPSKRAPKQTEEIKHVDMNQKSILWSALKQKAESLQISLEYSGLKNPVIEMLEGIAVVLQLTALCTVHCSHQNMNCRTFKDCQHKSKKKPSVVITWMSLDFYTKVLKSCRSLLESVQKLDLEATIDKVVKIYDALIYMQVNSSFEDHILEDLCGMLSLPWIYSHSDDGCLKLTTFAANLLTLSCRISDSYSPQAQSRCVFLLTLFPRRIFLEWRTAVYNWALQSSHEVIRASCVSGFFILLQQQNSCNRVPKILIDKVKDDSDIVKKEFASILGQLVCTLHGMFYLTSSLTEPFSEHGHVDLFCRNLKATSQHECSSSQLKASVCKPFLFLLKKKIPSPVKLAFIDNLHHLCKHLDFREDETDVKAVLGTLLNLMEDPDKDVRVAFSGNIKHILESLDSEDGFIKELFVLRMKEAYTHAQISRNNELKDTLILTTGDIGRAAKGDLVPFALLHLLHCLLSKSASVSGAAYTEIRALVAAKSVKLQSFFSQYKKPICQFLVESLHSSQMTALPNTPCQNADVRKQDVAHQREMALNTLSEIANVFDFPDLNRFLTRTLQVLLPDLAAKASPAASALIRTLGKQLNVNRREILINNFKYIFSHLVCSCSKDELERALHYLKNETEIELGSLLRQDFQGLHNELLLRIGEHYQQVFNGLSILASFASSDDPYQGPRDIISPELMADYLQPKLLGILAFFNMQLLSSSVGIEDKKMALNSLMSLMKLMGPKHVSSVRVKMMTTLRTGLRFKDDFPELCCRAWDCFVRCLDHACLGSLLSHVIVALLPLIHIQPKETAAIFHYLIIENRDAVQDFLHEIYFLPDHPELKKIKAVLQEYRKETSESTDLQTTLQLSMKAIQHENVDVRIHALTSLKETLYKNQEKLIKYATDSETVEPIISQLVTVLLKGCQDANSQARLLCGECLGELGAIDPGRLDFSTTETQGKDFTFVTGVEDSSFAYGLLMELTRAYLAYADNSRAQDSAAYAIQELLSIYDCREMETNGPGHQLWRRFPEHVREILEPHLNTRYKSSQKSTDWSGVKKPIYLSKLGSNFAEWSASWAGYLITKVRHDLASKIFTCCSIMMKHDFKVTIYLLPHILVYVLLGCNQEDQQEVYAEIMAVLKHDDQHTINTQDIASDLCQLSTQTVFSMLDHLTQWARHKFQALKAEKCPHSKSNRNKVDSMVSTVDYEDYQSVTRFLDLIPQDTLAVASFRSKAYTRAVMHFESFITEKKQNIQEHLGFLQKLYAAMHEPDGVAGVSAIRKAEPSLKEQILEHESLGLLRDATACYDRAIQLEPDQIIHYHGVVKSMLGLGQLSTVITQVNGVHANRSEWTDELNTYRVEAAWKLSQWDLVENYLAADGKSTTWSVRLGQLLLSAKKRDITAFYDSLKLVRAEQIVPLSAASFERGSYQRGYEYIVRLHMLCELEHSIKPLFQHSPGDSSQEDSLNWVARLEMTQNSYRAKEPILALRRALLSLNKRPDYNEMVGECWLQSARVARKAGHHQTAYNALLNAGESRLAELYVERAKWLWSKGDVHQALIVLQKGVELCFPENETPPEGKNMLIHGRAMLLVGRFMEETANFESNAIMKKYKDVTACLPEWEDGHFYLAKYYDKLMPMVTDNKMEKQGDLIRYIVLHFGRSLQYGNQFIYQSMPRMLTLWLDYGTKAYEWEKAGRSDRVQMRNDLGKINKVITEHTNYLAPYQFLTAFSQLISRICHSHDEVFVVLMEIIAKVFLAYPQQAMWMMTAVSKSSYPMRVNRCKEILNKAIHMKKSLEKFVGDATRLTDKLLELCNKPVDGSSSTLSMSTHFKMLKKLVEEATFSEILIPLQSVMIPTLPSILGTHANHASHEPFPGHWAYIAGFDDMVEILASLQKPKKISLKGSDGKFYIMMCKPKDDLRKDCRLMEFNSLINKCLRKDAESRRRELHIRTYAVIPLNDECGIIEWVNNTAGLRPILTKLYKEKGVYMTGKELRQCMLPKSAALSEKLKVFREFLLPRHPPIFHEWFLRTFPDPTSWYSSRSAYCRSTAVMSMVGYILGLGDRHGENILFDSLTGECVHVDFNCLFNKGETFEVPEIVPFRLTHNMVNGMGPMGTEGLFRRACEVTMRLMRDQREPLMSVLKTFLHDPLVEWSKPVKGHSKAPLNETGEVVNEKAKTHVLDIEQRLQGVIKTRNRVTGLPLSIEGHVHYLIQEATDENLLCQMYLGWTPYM
Sequence of ATR/ATRIP (Q8WXE1 whole entry partner): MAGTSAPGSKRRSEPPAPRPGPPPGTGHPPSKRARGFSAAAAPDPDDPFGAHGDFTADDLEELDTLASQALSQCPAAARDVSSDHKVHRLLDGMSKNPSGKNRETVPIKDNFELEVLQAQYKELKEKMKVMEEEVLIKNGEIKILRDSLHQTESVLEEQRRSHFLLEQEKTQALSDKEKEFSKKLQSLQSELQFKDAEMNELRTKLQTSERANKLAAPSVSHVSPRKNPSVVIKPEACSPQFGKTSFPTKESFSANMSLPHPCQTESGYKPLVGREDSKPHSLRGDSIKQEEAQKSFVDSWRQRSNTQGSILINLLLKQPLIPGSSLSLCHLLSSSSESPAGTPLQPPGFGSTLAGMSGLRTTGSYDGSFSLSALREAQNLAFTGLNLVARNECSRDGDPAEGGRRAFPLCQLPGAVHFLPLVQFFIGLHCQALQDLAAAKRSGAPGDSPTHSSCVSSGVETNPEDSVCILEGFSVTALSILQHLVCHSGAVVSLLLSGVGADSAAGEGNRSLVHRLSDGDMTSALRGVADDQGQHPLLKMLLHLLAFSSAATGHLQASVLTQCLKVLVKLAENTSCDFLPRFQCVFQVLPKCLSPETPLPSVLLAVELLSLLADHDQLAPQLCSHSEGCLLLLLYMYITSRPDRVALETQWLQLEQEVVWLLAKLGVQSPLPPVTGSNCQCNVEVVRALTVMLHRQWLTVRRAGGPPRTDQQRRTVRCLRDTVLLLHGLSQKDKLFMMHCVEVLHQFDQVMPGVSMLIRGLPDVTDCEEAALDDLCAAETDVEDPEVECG
In short: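 Full-length human ATR/ATRIP co-expressed in mammalian cells (typically 0.3 nM) preincubated with compound 15 min at 22° C, then 50 nM cmyc-p53 and 0.5 μM ATP added for typically 25 min; HEPES pH 8.0 with Mg2+/Mn2+. p53 Ser15 phosphorylation read by HTRF (665/615 ratio); IC50 by nonlinear regression.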

Sequence of Kv11.1 (hERG) ion channel (Q12809 whole entry): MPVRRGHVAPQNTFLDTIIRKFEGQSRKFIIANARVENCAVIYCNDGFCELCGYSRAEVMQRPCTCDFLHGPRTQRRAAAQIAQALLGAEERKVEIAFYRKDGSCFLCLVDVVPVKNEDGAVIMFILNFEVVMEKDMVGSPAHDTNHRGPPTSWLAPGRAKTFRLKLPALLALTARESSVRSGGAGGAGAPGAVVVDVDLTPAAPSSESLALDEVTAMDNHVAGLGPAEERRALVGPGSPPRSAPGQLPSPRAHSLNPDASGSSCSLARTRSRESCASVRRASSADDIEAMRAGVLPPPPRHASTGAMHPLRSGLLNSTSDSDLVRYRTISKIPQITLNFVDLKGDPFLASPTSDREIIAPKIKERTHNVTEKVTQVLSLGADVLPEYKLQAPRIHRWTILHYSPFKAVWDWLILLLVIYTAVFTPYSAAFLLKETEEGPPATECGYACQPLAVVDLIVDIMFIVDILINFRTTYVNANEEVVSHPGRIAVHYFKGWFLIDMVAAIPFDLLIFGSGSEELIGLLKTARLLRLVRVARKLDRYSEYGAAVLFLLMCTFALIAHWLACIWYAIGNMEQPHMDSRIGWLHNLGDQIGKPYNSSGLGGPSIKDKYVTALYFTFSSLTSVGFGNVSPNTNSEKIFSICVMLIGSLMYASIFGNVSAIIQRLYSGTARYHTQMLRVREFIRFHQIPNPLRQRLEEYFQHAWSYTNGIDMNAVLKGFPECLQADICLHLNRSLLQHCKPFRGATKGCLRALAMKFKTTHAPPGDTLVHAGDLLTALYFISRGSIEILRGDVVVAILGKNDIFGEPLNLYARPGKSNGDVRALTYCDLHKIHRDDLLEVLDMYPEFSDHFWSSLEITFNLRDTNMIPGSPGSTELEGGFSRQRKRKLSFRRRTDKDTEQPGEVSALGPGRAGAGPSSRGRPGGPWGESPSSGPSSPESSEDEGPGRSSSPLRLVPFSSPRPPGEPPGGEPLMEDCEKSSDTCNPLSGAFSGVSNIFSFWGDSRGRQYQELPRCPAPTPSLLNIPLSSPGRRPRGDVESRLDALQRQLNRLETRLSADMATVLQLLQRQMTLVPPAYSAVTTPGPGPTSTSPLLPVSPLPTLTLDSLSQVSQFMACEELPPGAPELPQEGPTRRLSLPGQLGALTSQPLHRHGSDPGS

SMILES | IC50 [2] [nM] | IC50 (ATR/ATRIP) [nM] | hERG % effect @ conc ([1]; @ 30 μM) [%] | Ki [1] [nM] | hERG % effect @ conc ([1]; @ 10 μM) [%]
CC(C)n1cc(-c2cc(N3CCOC[C@H]3C)nc3c(-c4cc[nH]n4)nn(C)c23)cn1 [Compound 18, 7-(1-Isopropyl-1H-pyrazol-4-yl)-1-methyl-5-((R)-3-methyl-morpholin-4-yl)-3-(1H-pyrazol-3-yl)-1H-pyrazolo[4,3-b]pyridine] | 100 to 1000 | 6.2 | – | > 10000 | −14
C[C@@H]1COCCN1c1cc(-c2ccncc2F)c2c(n1)c(-c1cc[nH]n1)nn2C [Compound 20, 7-(3-Fluoro-pyridin-4-yl)-1-methyl-5-((R)-3-methyl-morpholin-4-yl)-3-(1H-pyrazol-3-yl)-1H-pyrazolo[4,3-b]pyridine] | 10 to 100 | 1.2 | – | > 10000 | −11
C[C@@H]1COCCN1c1cc(C(C)(C)O)c2c(n1)c(-c1cc[nH]n1)nn2C [Compound 25, 2-[1-Methyl-5-((R)-3-methyl-morpholin-4-yl)-3-(1H-pyrazol-3-yl)-1H-pyrazolo[4,3-b]pyridin-7-yl]-propan-2-ol] | 10 to 100 | 4.3 | – | > 10000 | −1
C[C@@H]1COCCN1c1cc(C2(S(C)(=O)=O)CC2)c2c(n1)c(-c1cc[nH]n1)nn2C [Compound 26, 7-(1-Methanesulfonyl-cyclopropyl)-1-methyl-5-((R)-3-methyl-morpholin-4-yl)-3-(1H-pyrazol-3-yl)-1H-pyrazolo[4,3-b]pyridine] | 10 to 100 | 0.8 | −24 | > 30000 | –
C[C@@H]1COCCN1c1cc(-c2ccn(CCF)n2)c2c(n1)c(-c1cc[nH]n1)nn2C [Compound 34, 7-[1-(2-Fluoro-ethyl)-1H-pyrazol-3-yl]-1-methyl-5-((R)-3-methyl-morpholin-4-yl)-3-(1H-pyrazol-3-yl)-1H-pyrazolo[4,3-b]pyridine] | 10 to 100 | 6.1 | – | > 10000 | −1
C[C@@H]1COCCN1c1cc([C@H]2CCCOC2)c2c(n1)c(-c1ccn[nH]1)nn2C [Compound 68, 1-Methyl-5-((R)-3-methyl-morpholin-4-yl)-3-(2H-pyrazol-3-yl)-7-(R)-tetrahydro-pyran-3-yl-1H-pyrazolo[4,3-b]pyridine] | 10 to 100 | – | −35 | > 30000 | –
C[C@@H]1COCCN1c1cc([C@@H]2CCCOC2)c2c(n1)c(-c1ccn[nH]1)nn2C [Compound 69, 1-Methyl-5-((R)-3-methyl-morpholin-4-yl)-3-(2H-pyrazol-3-yl)-7-(S)-tetrahydro-pyran-3-yl-1H-pyrazolo[4,3-b]pyridine] | 10 to 100 | – | −29 | > 30000 | –
C[C@@H]1COCCN1c1cc([C@@H]2CCOC2)c2c(n1)c(-c1ccn[nH]1)nn2C [Compound 71, 1-Methyl-5-((R)-3-methyl-morpholin-4-yl)-3-(2H-pyrazol-3-yl)-7-(S)-tetrahydro-furan-3-yl-1H-pyrazolo[4,3-b]pyridine] | 10 to 100 | – | – | > 10000 | −16
C[C@@H]1COCCN1c1cc(-c2ccnn2C(F)F)c2c(n1)c(-c1ccn[nH]1)nn2C [Compound 78, (3R)-4-{7-[1-(Difluoromethyl)-1H-pyrazol-5-yl]-1-methyl-3-(1H-pyrazol-5-yl)-1H-pyrazolo[4,3-b]pyridin-5-yl}-3-methylmorpholine] | 10 to 100 | – | −12 | > 30000 | –

Further lines, with some results ahead:

IC50 [2] [nM] | IC50 (ATR/ATRIP) [nM] | SMILES | hERG % effect @ conc ([1]; @ 30 μM) [%] | Ki [1] [nM] | hERG % effect @ conc ([1]; @ 10 μM) [%]
10 to 100 | 2.3 | Cc1ccc(-c2cc(N3CCOC[C@H]3C)nc3c(-c4cc[nH]n4)nn(C)c23)cn1 [Compound 1, 1-Methyl-5-((R)-3-methyl-morpholin-4-yl)-7-(6-methyl-pyridin-3-yl)-3-(1H-pyrazol-3-yl)-1H-pyrazolo[4,3-b]pyridine] | −28 | > 30000 | –
10 to 100 | 0.8 | Cc1ccc(-c2cc(N3CCOC[C@H]3C)nc3c(-c4cc[nH]n4)n[nH]c23)cn1 [Compound 2, 5-((R)-3-Methyl-morpholin-4-yl)-7-(6-methyl-pyridin-3-yl)-3-(1H-pyrazol-3-yl)-1H-pyrazolo[4,3-b]pyridine] | – | > 10000 | −3
10 to 100 | 0.8 | Cc1ncccc1-c1cc(N2CCOC[C@H]2C)nc2c(-c3cc[nH]n3)nn(C)c12 [Compound 4, 1-Methyl-5-((R)-3-methyl-morpholin-4-yl)-7-(2-methyl-pyridin-3-yl)-3-(1H-pyrazol-3-yl)-1H-pyrazolo[4,3-b]pyridine] | – | > 10000 | −12
10 to 100 | 3.5 | C[C@@H]1COCCN1c1cc(-c2ccc([S+](C)[O-])cc2)c2c(n1)c(-c1cc[nH]n1)nn2C (stereo partly drawn) [Compound 5, 7-(4-Methanesulfinyl-phenyl)-1-methyl-5-((R)-3-methyl-morpholin-4-yl)-3-(1H-pyrazol-3-yl)-1H-pyrazolo[4,3-b]pyridine] | – | > 10000 | −22
10 to 100 | 2.3 | C[C@@H]1COCCN1c1cc(-c2ccc(S(C)(=O)=O)cc2)c2c(n1)c(-c1cc[nH]n1)nn2C [Compound 7, 7-(4-Methanesulfonyl-phenyl)-1-methyl-5-((R)-3-methyl-morpholin-4-yl)-3-(1H-pyrazol-3-yl)-1H-pyrazolo[4,3-b]pyridine] | – | > 10000 | −16
< 10 | 2.1 | Cc1nc([S+](C)[O-])ccc1-c1cc(N2CCOC[C@H]2C)nc2c(-c3cc[nH]n3)nn(C)c12 (stereo partly drawn) [Compound 8, 7-(6-Methanesulfinyl-2-methyl-pyridin-3-yl)-1-methyl-5-((R)-3-methyl-morpholin-4-yl)-3-(1H-pyrazol-3-yl)-1H-pyrazolo[4,3-b]pyridine] | – | > 10000 | −6
10 to 100 | 0.9 | Cc1nc(S(C)(=O)=O)ccc1-c1cc(N2CCOC[C@H]2C)nc2c(-c3cc[nH]n3)nn(C)c12 [Compound 11, (3R)-4-[7-(6-Methanesulfonyl-2-methylpyridin-3-yl)-1-methyl-3-(1H-pyrazol-3-yl)-1H-pyrazolo[4,3-b]pyridin-5-yl]-3-methylmorpholine] | – | > 10000 | −5
10 to 100 | 0.6 | C[C@@H]1COCCN1c1cc(-c2ccnc3[nH]ccc23)c2c(n1)c(-c1cc[nH]n1)nn2C [Compound 15, 1-Methyl-5-((R)-3-methyl-morpholin-4-yl)-3-(1H-pyrazol-3-yl)-7-(1H-pyrrolo[2,3-b]pyridin-4-yl)-1H-pyrazolo[4,3-b]pyridine] | – | > 10000 | −24
10 to 100 | 3.6 | Cc1cc(S(C)(=O)=O)ncc1-c1cc(N2CCOC[C@H]2C)nc2c(-c3cc[nH]n3)nn(C)c12 [Compound 17, 7-(6-Methanesulfonyl-4-methyl-pyridin-3-yl)-1-methyl-5-((R)-3-methyl-morpholin-4-yl)-3-(1H-pyrazol-3-yl)-1H-pyrazolo[4,3-b]pyridine] | – | > 10000 | 5
10 to 100 | 3.4 | Cc1nn(C)cc1-c1cc(N2CCOC[C@H]2C)nc2c(-c3cc[nH]n3)nn(C)c12 [Compound 19, 7-(1,3-Dimethyl-1H-pyrazol-4-yl)-1-methyl-5-((R)-3-methyl-morpholin-4-yl)-3-(1H-pyrazol-3-yl)-1H-pyrazolo[4,3-b]pyridine] | – | > 10000 | −6
